From PMC4774911, “Biochemical Screening of Five Protein Kinases from Plasmodium falciparum against 14,000 Cell-Active Compounds” (PLoS ONE, 2016)
Values joined by “and” are separate entries in the source; they are usually repeats but may differ in a detail not shown here. Equal entries are not always repeated.

What was measured:
Assay in all cases: biochemical
CABC1 = CABC1 (Homo sapiens, UniProt Q8NI60)
ADCK1 = biological target: T1, ADCK1 (Homo sapiens, UniProt Q86TW2)
T1 sequence (Q86TW2 1-530): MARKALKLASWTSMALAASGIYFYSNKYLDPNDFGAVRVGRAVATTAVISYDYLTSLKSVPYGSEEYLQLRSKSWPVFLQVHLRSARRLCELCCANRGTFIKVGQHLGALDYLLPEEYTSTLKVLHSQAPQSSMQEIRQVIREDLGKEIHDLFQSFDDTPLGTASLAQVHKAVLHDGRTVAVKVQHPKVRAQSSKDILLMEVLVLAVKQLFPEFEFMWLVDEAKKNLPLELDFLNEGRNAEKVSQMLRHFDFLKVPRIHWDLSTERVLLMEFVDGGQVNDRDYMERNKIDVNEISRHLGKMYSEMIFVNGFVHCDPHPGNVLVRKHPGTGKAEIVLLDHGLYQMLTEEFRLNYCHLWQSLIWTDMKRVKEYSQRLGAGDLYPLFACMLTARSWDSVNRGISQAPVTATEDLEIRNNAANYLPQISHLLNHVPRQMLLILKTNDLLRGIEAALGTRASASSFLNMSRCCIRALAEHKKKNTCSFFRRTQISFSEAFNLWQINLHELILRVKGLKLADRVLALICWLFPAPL

MAPK9 = MAPK9 (Homo sapiens, UniProt P45984)
MAPK9, sequence (P45984 whole entry): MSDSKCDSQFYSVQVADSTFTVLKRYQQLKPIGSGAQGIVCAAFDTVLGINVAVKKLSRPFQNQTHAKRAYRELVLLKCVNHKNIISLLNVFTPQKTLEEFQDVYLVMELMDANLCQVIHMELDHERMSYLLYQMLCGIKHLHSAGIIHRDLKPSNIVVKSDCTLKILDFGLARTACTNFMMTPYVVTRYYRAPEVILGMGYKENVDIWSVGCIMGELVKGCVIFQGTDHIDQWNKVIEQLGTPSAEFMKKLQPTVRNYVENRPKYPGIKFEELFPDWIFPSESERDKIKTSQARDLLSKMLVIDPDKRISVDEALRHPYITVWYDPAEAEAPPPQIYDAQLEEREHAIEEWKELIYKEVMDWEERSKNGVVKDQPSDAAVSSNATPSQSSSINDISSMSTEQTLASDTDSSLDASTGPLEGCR

CSNK2A2 = CSNK2A2 (Homo sapiens, UniProt P19784)
CSNK2A2, sequence (P19784 whole entry): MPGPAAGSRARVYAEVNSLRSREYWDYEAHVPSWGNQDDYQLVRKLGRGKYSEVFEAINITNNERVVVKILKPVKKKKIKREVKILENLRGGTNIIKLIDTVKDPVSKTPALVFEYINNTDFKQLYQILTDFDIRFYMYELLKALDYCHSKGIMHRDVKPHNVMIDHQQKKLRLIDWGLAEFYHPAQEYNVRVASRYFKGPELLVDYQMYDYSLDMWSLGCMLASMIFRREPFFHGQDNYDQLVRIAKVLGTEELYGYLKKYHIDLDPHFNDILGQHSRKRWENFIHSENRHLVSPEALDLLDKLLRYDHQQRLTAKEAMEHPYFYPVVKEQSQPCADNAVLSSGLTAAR

BMP2K = BMP2K (Homo sapiens, UniProt Q9NSY1)
BMP2K, sequence (Q9NSY1 whole entry): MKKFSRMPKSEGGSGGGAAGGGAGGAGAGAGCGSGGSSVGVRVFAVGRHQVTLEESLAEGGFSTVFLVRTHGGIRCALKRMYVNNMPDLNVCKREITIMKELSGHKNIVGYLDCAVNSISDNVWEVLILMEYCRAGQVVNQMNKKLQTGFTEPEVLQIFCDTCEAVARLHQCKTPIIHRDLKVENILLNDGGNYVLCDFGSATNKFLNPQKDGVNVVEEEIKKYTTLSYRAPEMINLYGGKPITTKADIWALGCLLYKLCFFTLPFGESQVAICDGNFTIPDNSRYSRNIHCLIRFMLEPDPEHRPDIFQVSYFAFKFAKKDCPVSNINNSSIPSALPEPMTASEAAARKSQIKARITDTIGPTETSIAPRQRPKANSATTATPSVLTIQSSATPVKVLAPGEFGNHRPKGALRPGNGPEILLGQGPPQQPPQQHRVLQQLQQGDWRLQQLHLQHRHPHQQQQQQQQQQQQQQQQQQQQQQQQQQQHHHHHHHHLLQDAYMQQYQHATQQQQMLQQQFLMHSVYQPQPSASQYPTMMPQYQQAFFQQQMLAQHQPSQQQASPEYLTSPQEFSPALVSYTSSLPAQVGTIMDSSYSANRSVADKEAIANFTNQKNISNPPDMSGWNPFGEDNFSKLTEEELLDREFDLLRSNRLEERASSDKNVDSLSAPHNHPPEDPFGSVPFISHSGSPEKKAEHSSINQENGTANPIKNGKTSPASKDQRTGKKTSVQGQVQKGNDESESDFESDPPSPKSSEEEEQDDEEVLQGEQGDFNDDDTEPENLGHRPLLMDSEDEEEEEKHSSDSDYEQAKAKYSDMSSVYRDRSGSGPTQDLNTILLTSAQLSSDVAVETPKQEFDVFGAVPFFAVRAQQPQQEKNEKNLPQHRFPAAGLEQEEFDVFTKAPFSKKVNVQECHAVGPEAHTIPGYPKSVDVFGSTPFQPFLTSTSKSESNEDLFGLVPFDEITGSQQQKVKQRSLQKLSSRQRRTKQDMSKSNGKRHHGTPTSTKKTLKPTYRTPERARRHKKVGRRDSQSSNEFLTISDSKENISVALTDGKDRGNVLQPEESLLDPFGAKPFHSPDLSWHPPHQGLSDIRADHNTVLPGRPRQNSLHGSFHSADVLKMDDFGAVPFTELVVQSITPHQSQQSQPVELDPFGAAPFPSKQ

NEK1 = biological target: T2, NEK1 (Homo sapiens, UniProt Q96PY6)
T2 sequence (Q96PY6 1-1258): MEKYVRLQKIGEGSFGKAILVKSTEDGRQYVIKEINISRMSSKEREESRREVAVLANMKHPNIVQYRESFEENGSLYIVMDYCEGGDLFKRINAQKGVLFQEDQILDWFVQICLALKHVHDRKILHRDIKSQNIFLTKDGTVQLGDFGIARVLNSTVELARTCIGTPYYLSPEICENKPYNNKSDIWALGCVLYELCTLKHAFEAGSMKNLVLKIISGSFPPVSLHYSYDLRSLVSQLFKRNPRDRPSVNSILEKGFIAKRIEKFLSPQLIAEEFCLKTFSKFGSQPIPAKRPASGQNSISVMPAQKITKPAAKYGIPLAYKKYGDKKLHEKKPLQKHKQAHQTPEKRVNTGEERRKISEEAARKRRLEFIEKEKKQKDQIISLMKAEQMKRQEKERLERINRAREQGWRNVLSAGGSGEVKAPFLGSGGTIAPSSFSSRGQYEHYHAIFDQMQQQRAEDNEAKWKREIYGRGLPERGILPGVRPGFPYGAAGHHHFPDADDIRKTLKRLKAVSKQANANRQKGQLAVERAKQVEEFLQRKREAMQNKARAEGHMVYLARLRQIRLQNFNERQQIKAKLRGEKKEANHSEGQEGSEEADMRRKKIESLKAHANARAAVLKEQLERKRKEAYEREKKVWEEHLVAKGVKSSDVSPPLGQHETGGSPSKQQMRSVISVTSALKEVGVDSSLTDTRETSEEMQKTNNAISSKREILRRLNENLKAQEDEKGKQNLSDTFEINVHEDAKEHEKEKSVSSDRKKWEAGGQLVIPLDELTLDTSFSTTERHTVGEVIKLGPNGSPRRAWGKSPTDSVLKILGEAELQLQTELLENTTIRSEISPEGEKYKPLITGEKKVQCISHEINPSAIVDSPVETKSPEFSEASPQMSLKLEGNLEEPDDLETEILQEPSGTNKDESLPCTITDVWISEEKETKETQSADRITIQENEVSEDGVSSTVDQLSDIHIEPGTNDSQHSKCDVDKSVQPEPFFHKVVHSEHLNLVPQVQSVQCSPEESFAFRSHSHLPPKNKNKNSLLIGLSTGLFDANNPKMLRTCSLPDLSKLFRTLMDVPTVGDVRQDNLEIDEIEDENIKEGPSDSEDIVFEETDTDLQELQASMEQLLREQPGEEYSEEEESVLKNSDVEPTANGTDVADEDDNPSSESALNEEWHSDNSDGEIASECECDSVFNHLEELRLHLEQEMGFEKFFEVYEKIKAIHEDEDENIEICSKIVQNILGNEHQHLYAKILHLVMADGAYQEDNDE

PKMYT1 = biological target: T3, PKMYT1 (Homo sapiens, UniProt Q99640)
T3 sequence (Q99640 1-499): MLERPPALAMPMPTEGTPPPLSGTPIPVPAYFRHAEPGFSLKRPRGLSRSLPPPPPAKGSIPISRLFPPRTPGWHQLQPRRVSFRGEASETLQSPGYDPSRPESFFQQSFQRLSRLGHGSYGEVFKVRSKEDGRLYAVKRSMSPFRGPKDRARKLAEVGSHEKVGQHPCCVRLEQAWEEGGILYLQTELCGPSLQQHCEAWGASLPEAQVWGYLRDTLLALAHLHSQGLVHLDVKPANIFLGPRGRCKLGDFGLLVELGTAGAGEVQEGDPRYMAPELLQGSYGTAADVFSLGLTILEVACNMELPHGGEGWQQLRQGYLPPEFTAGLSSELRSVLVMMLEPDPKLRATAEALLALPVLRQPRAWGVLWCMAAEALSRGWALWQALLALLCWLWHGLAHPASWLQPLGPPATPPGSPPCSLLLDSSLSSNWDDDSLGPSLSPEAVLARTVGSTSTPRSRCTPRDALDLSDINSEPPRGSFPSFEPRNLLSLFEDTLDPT

MAP3K4 = MAP3K4 (Homo sapiens, UniProt Q9Y6R4)
MAP3K4, sequence (Q9Y6R4 whole entry): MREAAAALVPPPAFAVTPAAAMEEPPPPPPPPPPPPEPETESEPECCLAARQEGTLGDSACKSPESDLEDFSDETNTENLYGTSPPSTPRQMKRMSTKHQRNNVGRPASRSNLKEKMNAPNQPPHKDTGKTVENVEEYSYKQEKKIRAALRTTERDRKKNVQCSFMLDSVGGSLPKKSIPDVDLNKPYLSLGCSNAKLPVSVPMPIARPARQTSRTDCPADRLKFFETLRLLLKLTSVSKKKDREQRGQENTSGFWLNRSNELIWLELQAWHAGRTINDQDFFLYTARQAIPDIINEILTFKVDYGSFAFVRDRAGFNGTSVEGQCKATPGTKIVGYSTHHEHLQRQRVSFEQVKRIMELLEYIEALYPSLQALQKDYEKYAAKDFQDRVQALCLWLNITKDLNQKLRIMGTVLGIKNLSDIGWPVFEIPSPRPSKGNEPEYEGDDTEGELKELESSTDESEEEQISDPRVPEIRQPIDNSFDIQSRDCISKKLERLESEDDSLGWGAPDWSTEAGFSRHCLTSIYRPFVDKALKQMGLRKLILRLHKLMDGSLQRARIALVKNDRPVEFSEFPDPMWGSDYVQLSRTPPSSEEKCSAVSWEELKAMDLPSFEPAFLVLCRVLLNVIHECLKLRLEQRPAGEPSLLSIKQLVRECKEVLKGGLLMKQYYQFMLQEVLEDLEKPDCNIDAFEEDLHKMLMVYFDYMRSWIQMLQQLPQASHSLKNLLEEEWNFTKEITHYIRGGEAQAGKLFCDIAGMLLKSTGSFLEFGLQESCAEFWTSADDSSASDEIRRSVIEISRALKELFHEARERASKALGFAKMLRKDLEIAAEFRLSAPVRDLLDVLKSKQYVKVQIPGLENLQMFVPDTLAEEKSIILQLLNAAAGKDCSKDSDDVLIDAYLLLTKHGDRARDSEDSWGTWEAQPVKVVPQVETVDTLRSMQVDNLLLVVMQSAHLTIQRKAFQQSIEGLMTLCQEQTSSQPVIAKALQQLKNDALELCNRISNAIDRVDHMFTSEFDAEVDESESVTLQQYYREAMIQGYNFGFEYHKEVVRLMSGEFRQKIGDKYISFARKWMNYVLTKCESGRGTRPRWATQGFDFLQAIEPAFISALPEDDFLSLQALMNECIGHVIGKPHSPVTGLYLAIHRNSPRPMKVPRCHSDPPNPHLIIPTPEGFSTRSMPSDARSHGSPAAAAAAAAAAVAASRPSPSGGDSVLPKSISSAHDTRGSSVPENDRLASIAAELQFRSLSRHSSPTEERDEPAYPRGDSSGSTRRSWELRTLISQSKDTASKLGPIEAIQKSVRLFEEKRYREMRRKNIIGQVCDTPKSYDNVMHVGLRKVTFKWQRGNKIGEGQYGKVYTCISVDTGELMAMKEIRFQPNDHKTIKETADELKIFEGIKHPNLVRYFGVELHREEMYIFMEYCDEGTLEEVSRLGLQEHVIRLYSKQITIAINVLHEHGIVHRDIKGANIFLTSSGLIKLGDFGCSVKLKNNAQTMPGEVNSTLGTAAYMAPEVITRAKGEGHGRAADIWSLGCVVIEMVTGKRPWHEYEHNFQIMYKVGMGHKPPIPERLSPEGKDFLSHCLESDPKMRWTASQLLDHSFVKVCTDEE

CAMK2D = CAMK2D (Homo sapiens, UniProt Q13557)
CAMK2D, sequence (Q13557 whole entry): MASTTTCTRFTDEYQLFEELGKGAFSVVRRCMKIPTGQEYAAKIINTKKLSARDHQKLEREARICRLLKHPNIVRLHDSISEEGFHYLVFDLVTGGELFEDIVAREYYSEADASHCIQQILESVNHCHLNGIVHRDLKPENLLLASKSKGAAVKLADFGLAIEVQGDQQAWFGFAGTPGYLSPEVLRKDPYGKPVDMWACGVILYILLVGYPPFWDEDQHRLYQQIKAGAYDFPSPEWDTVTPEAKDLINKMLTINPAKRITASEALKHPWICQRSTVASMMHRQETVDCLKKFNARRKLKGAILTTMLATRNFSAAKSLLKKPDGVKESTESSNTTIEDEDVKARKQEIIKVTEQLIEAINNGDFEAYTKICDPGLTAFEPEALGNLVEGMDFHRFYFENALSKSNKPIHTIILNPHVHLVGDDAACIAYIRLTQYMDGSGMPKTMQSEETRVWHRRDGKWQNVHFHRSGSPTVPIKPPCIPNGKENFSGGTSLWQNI

CABC1, sequence (Q8NI60 whole entry): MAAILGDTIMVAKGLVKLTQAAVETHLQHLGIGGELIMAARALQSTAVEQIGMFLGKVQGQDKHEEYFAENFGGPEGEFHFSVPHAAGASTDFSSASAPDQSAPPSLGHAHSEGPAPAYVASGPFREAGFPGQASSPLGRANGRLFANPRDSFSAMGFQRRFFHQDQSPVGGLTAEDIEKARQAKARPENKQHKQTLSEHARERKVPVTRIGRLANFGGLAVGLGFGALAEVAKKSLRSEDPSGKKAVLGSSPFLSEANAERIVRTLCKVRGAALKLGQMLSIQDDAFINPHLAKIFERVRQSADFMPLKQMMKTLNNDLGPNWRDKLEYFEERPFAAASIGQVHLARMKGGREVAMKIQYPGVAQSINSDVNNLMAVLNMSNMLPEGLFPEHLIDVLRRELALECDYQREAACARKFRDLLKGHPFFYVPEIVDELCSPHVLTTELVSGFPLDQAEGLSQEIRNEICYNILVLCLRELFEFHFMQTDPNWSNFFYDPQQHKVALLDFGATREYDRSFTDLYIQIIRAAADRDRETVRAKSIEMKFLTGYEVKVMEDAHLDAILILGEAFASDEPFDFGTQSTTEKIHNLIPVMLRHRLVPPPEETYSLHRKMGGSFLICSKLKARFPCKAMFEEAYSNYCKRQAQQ

SMILES | IC50 (CABC1) | IC50 (ADCK1) | IC50 (MAPK9) | IC50 (CSNK2A2) | IC50 (BMP2K) | IC50 (NEK1) | IC50 (PKMYT1) | IC50 (MAP3K4) | IC50 (CAMK2D)
CN1CCN(c2ccc(Nc3ncc(C#N)c(Nc4ccccc4C(N)=O)n3)cc2)CC1.Cl [TCMDC-134116] | > 20000 nM | 1000 nM | 1100 nM and 1000 nM | ≤ 32 nM | 350 nM and 290 nM | 570 nM and 470 nM | 1400 nM and 940 nM | 39 nM and 51 nM | 1900 nM and 960 nM
Cl.NCC1(c2nc(-c3ccc(Cl)c(O)c3)c(-c3ccncc3)[nH]2)CCCCC1 [TCMDC-141154] | > 20000 nM | > 20000 nM | 1700 nM | > 20000 nM | > 20000 nM | > 20000 nM | > 20000 nM | > 20000 nM | > 20000 nM
CN(C)CC(O)COc1ccc(Nc2ncc([N+](=O)[O-])c(Nc3ccccc3O)n2)cc1.O=C(O)C(F)(F)F (stereo not drawn) [TCMDC-141399] | > 20000 nM | 1800 nM | > 20000 nM | 56 nM and 45 nM | > 20000 nM | 6400 nM | > 20000 nM | 840 nM | > 20000 nM
